# Measured values as given in patent publication US20130224236A1, “HSV-1 EPITOPES AND METHODS FOR USING SAME” (UNIVERSITY OF WASHINGTON, priority 2010, published 2013).
# Key:
# [1] = system: Bulk-expanded HSV-1-reactive CD4 T-cell lines; experiment: ORFeome CD4 screen: 3H thymidine proliferation to recombinant HSV-1 proteins; type: cell-based, human; conditions: of 11 persons
# [2] = system: bulk polyclonal CD8 effector cells; experiment: ORFeome CD8 screen: IFN-γ ELISA after adding CD8 responders to Cos-7 aAPC co-transfected with HLA class I cDNA and HSV-1 ORF; type: cell-based, human
substance,measurement,setting,value
UL46: HSV-1 tegument protein VP11/12 encoded by gene UL46,number of persons with CD4 recognition of the protein,[1],11
same,number of distinct restricting HLA alleles,[2]; CD8 recognition,7
same,CD8 IFN-γ responses to HSV-1 polypeptide (ORF level),"[2]; amongst the 7 participants, HLA A, B, C screens",elicit CD8 IFN-γ responses
same,number of persons with CD8 recognition of the ORF,[2]; of 7 persons,5
same,number of HLA-level screens in which the ORF was recognized,[2]; of 39 screens,10
